{"source": "patent US12390444B2", "about": "“Stabilizing vitamin C topical formulations” (MF Beauty Partners LLC, priority 2020, dated 2025)", "key": {"[1]": {"experiment": "Solubility of optional additional components in non-aqueous solvents", "type": "physicochemical", "source_text": "Additional ingredients were chosen for their compatibility with (e.g., miscibility in) 1,3 propanediol, 1,2 propanediol, and 1,3 butanediol."}, "[2]": {"details": "most solvents; cited from earlier work"}, "skin [3]": {"test_system": "skin", "details": "4% HQ versus 5% Vitamin C; cited from earlier work"}, "skin [4]": {"test_system": "skin", "details": "in vivo; cited from earlier work"}, "[5]": {"description": "This example was reproduced.\nAll mixtures were heated to 85° C."}, "erythema (skin redness)": {"test_system": "erythema (skin redness)", "details": "concentrations of 0.2%; cited from earlier work"}}}
{"molecule": "COc1cc(CC(C(C)=O)C(C)=O)ccc1O", "note": "[Acetyl zingerone]", "values": [{"measurement": "solubility of acetyl zingerone", "setting": "[1]; 0.5-1%, 1,3 propanediol, 1,2 propanediol and 1,3 butanediol", "result": "readily soluble"}]}
{"molecule": "O=C(O)CCCCCCCC(=O)O", "note": "[AzA, Azelaic acid]", "values": [{"measurement": "solubility of AzA", "setting": "[2]", "result": "very poorly soluble"}, {"measurement": "concentration of AzA that can be solubilized", "setting": "[1]; 1,3 propanediol", "result": "up to 10%"}, {"measurement": "solubility of AzA in presence of hydroxyethyl urea", "setting": "[1]; 1,3 propanediol", "result": "slightly increased"}, {"measurement": "AzA solubilized together with AA and U", "setting": "[1]; with 10% AA, 5% U in a 1,3 propanediol base", "result": 7.5, "unit": "%"}]}
{"molecule": "Oc1ccc(O)cc1", "note": "[HQ, hydroquinone]", "values": [{"measurement": "improvement", "setting": "skin [3]", "result": 93, "unit": "%"}, {"measurement": "side-effects", "setting": "skin [3]", "result": 68.7, "unit": "%"}]}
{"molecule": "CC(C)(CO)[C@@H](O)C(=O)NCCCO", "note": "[Panthenol]", "values": [{"measurement": "concentration at which inhibition of transepidermal water loss is apparent", "setting": "skin [4]", "result": "≥ 1", "unit": "%"}]}
{"molecule": "NC(N)=O", "note": "[U, urea]", "values": [{"measurement": "maximum concentrations soluble before urea starts to precipitate (the ceiling)", "setting": "[5]; ascorbic acid together with urea in propylene glycol, butylene glycol and propanediol", "result": 20, "unit": "%"}]}
{"molecule": "O=C1O[C@H]([C@@H](O)CO)C(O)=C1O", "note": "[ascorbic acid, L-ascorbic acid]", "values": [{"measurement": "improvement", "setting": "skin [3]", "result": 62.5, "unit": "%"}, {"measurement": "degradation on heating", "setting": "[5]", "result": "showed signs of degradation"}]}
{"molecule": "CC1(C)[C@@H](O[C@H]2O[C@H](C(=O)O)[C@@H](O)[C@H](O)[C@H]2O[C@@H]2O[C@H](C(=O)O)[C@@H](O)[C@H](O)[C@H]2O)CC[C@]2(C)[C@H]3C(=O)C=C4[C@@H]5C[C@@](C)(C(=O)O)CC[C@]5(C)CC[C@@]4(C)[C@]3(C)CC[C@@H]12", "note": "[glycyrrhizic acid, Glycyrrhizic acid]", "values": [{"measurement": "solubility of glycyrrhizic acid", "setting": "[1]; 1,3-propanediol", "result": "shows solubility"}]}
{"molecule": "Madecassoside", "values": [{"measurement": "reduction of erythema (skin redness), clinical data", "setting": "erythema (skin redness)", "result": "desirable ability to reduce erythema"}, {"measurement": "solubility of madecassoside", "setting": "[1]; concentration of 0.2%, 1,3 propanediol, 1,2 propanediol and 1,3 butanediol", "result": "soluble"}]}
